Reference: patent US20230134760A1, “CAR AND NRF2 DUAL ACTIVATOR AGENTS FOR CYCLOPHOSPHAMIDE-BASED AND DOXORUBICIN-BASED TREATMENTS OF CANCER” (priority 2020, published 2023)

Tests used:
[1] = tested on: BT549 cells; experiment: Cell viability assay, DOX-induced toxicity in BT549 cells; assay type: cell-based; details: BT549, DOX 2.5 μM
Procedure: (§1) Immortalized triple negative breast cancer cell lines MDA-MB-231 and BT549 were obtained from ATCC (Rockville, Md.). Additionally, the h9c2 cell line was purchased from ATCC (Rockville, Md.). […] Human iPSC-derived cardiomyocytes were maintained in Mtesr plus and supplemented according to protocol. These cells were treated for 2 hrs or an overnight as indicated. Following a 2 hr pretreatment, cells were co-treated with DOX at indicated concentrations for 6 or 22 hours. Following the overnight treatments, RNA or protein was isolated. HPH were seeded in collagen-coated 24 well plates and pretreated for 24 hrs. BT549 were seeded on inverted coverslips. After a 24 hr pretreatment, hepatocytes were co-administered as indicated and coverslips were inserted. The cell lines were used for less than 60 passages. H9c2 cells were seeded 0.8×10^5 in 24-well plates. […] A Cell Counting Kit-8 (Enzo) assay was carried out. Cell viability was described as a percent of vehicle control (0.1% DMSO).

[2] = tested on: BT549 cells; experiment: Oxidative stress imaging (DFDA) in BT549 cells; assay type: cell-based; details: BT549, DL7076 5 μM + DOX
[3] = tested on: iPSC-derived cardiomyocytes; experiment: Cell viability, DOX-induced cytotoxicity in iPSC-derived cardiomyocytes; assay type: cell-based, human; details: co-administration with DOX
Procedure: as §1

[4] = tested on: CYP2B6; assay type: cell-based; details: human, hepatocytes
Procedure: HPH were obtained from BIOIVT (Baltimore, Md.) and seeded at 1.5×10^6 or 7.5×10^5 cells/well in 6- or 12-well collagen I-coated plates, while 24-well collagen I-coated plates were seeded at 3.75×10^5 cells/well as described previously. 24 hours after seeding, HPH were cultured cells were overlaid with 0.25 mg/mL Matrigel Corning, Corning, N.Y.) 24 h after seeding in serum-free William's E Medium (WEM) supplemented with ITS+(insulin, transferrin, and selenium, 100×; […] Millipore Sigma), 100 U/ml penicillin, and 100 μg/ml streptomycin (Pen-Strep; ThermoFisher Scientific, Waltham, Mass.), and 2 mM L-glutamine (Invitrogen, Carlsbad, Calif.). Overlaid HPH were treated with compounds in Complete WEM (CYP2B6 and CYP3A4 studies and coculture studies). After 24 h treatment, HPH, BT549, MDA-MB-231, and H9c2 cells were washed and a phenol-chloroform extraction was used to isolate total RNA with the TRIzol reagent (ThermoFisher, Rockford, Ill.). Reverse transcription was performed on extracted RNA (1 μg) to produce cDNA using the High Capacity cDNA Archive kit according to manufacturer's instructions (Applied Biosystems, Foster, Calif.). […] Quantification of expression changes was done by the 2^ΔΔCt method, normalizing to GAPDH as the housekeeping gene and determining the fold change compared to control values (n=3). […]

[5] = tested on: HO-1; experiment: HO-1 expression in H9c2 cardiomyocytes (RT-PCR, Western blot); assay type: cell-based, rat
Procedure: Immortalized triple negative breast cancer cell lines MDA-MB-231 and BT549 were obtained from ATCC (Rockville, Md.). Additionally, the h9c2 cell line was purchased from ATCC (Rockville, Md.). […] Human iPSC-derived cardiomyocytes were maintained in Mtesr plus and supplemented according to protocol. These cells were treated for 2 hrs or an overnight as indicated. Following a 2 hr pretreatment, cells were co-treated with DOX at indicated concentrations for 6 or 22 hours. Following the overnight treatments, RNA or protein was isolated. HPH were seeded in collagen-coated 24 well plates and pretreated for 24 hrs. BT549 were seeded on inverted coverslips. After a 24 hr pretreatment, hepatocytes were co-administered as indicated and coverslips were inserted. The cell lines were used for less than 60 passages. After 24 h treatment, HPH, BT549, MDA-MB-231, and H9c2 cells were washed and a phenol-chloroform extraction was used to isolate total RNA with the TRIzol reagent (ThermoFisher, Rockford, Ill.). Reverse transcription was performed on extracted RNA (1 μg) to produce cDNA using the High Capacity cDNA Archive kit according to manufacturer's instructions (Applied Biosystems, Foster, Calif.). PCR was performed on an ABI StepOnePlus Real-Time PCR system (Applied Biosystems) using Fast SYBR Green Master Mix (Thermofisher, Rockford, Ill.) to determine gene expression changes. Primer sequences for CYP2B6, CYP3A4, HO-1, and glyceraldehyde-3-phosphate dehydrogenase (GAPDH) are: CYP2B6, [NT] ID NO: 1) and [NT] ID NO: 2); CYP3A4, [NT] ID NO: 3) and [NT] ID NO: 4); HO-1 [NT] ID NO: 5) and [NT] ID NO: 6) GAPDH, [NT] ID NO: 7) and [NT] ID NO: 8). Quantification of expression changes was done by the 2^ΔΔCt method, normalizing to GAPDH as the housekeeping gene and determining the fold change compared to control values (n=3). Protein was harvested using cell lysis buffer (Cell Signaling Technology, Danvers, Mass.) with a complete protease inhibitor cocktail (Roche, Mannheim, Germany) prior to homogenizing via sonification. […]

## O=C(NCCN=C=S)c1c(-c2ccc3ccccc3c2)nc2sccn12 [DL7076, N-(2-Isothiocyanatoethyl)-6-(naphthalen-2-yl)imidazo[2,1-b]thiazole-5-carboxamide]
[1]
  reversal of DOX-induced toxicity (viability): this efficient reversal was not shown
[2]
  ROS with cotreatment: significant ROS without reduction
[3]
  reversal of DOX-induced cytotoxicity: efficiently reversed by co-administration of DL7076
[4]
  CYP2B6 protein induction: clear preferential induction of CYP2B6
[5]; H9c2, 10 μM, 24 hours, vs vehicle control
  HO-1 mRNA induction: 3- to 3.5 fold
[5]; H9c2, Western blot
  HO-1 protein induction: robust induction in the expression of HO-1 was confirmed at a protein level
[5]; H9c2, pretreatment, DOX 2.5 μM
  HO-1 protein expression in the presence of DOX: concentration dependent protection in the expression of HO-1
